ChEMBL document CHEMBL1139750, “Arylsulfonamides: a study of the relationship between activity and conformational preferences for a series of factor Xa inhibitors” (Bioorg Med Chem Lett, 2006)

Biological target: Coagulation factor X (Homo sapiens, UniProt P00742)
Assay: Binding affinity at factor 10a

Sequence of Coagulation factor X (P00742 41-179 limits assumed): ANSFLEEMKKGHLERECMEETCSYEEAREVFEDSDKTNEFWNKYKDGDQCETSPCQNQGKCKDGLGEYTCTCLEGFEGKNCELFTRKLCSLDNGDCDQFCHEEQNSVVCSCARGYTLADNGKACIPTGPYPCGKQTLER
Sequence of Coagulation factor X (P00742 235-488 limits assumed): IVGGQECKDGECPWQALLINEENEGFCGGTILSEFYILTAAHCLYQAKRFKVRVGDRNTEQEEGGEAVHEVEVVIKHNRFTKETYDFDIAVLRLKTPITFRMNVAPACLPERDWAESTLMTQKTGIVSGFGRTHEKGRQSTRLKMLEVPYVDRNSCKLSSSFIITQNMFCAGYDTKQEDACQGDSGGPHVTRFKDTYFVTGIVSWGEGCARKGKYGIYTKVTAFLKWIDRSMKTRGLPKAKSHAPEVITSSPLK

Structure (SMILES) | Ki [nM]
C[C@@H](C(=O)N1CCOCC1)N1CC[C@H](NS(=O)(=O)c2cc3ccc(Cl)cc3s2)C1=O | 15
C[C@@H](C(=O)N1CCOCC1)N1CC[C@H](NS(=O)(=O)c2cc3cc(Cl)ccc3o2)C1=O | 782
C[C@@H](C(=O)N1CCOCC1)N1CC[C@H](NS(=O)(=O)c2cc3cc(Cl)ccc3s2)C1=O | 47
C[C@@H](C(=O)N1CCOCC1)N1CC[C@H](NS(=O)(=O)c2cc3ccc(Cl)cc3[nH]2)C1=O | 170
C[C@@H](C(=O)N1CCOCC1)N1CC[C@H](NS(=O)(=O)c2cc3ccc(Cl)cc3o2)C1=O | 285
C[C@@H](C(=O)N1CCOCC1)N1CC[C@H](NS(=O)(=O)c2nc3ccc(Cl)cc3s2)C1=O | 4160
C[C@@H](C(=O)N1CCOCC1)N1CC[C@H](NS(=O)(=O)c2nc3cc(Cl)ccc3s2)C1=O | 112
C[C@@H](C(=O)N1CCOCC1)N1CC[C@H](NS(=O)(=O)c2cc3cc(Cl)ccc3[nH]2)C1=O | 90
